Experimental data published in publication PMC10721329, “Quisinostat is a brain-penetrant radiosensitizer in glioblastoma” (JCI Insight, 2023).
Where “and” joins values, the source holds several entries; their conditions need not be identical. Identical values can stand only once.

Assays:
Experiment in all cases: CellTiter-Glo dose-response cell viability assay
Type in all cases: cell-based, human
[1] = tested on: GB282 patient-derived GSC line; conditions: Homo sapiens
Protocol: (§1) QST (JNJ-26481585) is a second-generation hydroxamic acid harboring remarkable selectivity toward class I HDACs, with a biochemical IC50 of 0.1 nM for HDAC1 ([13]). […] To determine the cytotoxic effects of QST, we performed a dose-titration cell viability assay in 7 patient-derived GSC lines (BT145, GB187, GB239, GB282, GB71, GB82, and GB126) and 1 long-term serum-grown human GBM cell line (U87). Because GBMs display a high degree of intratumoral heterogeneity, we used GSCs derived from both primary and recurrent GBMs that harbored distinct genetic mutations or aberrations, growth rates, MGMT promoter methylation status, and gene expression profiles (Supplemental Figure 1; supplemental material available online with this article; https://doi.org/10.1172/jci.insight.167081DS1). Cell lines were treated with various concentrations of QST (10–1000 nM), and cell viability was measured 3–5 days later (Figure 1, A and B). […] Treatment with QST at the IC50 induced significant inhibition of proliferation (Ki67) and an increase in programmed cell death (cleaved caspase 3) in 2 different GSC lines (Figure 1, C and D). Additional analyses confirmed that QST induces apoptosis after short-term treatment through increased staining of the apoptotic marker annexin V (Figure 2A) and cell cycle arrest (in G2- or S-phase; Figure 2B and Supplemental Figure 1B).
(§2) GSCs were seeded in laminin-coated tissue culture–treated 96-well plates (clear bottom, white plate; Corning) at a density of 1000–5000 cells per well (cell line dependent) in GSC media. U87-MG were seeded using their normal growth conditions without laminin (10% bovine calf serum in DMEM). All cells were incubated at 37°C and allowed to adhere overnight. The next day, cells were treated with incremental concentrations of QST (Selleckchem; 0, 10, 25, 50, 100, 250, 500, and 1000 nM) diluted in media. Cells treated without QST were treated with DMSO diluted in media. Following treatment with QST, cells were grown for 3 to 5 days (cell line dependent), and cell viability was measured and quantified. All cell viability measurements were performed using the CellTiter-Glo luminescent cell viability assay (Promega) following the manufacturer’s instructions. For the sulforhodamine B colorimetric assay for cytotoxicity, the protocol was performed as described elsewhere ([33]). All cell viability results represent the mean of at least 3 biological replicates, each containing 3 technical replicates.

[2] = tested on: GB71 patient-derived GSC line
Protocol: as §1, §2

[3] = tested on: GB82 patient-derived GSC line
Protocol: as §1, §2

U87 GBM cell line = tested on: U87 GBM cell line
Protocol: as §1, §2

[4] = Homo sapiens, QST 10 nM (log[nM] 1), read-out: Cell viability (fraction of DMSO control)
[5] = Homo sapiens, QST 25 nM (log[nM] 1.39794), read-out: Cell viability (fraction of DMSO control)
[6] = Homo sapiens, QST 50 nM (log[nM] 1.69897), read-out: Cell viability (fraction of DMSO control)
[7] = Homo sapiens, QST 100 nM (log[nM] 2), read-out: Cell viability (fraction of DMSO control)
[8] = Homo sapiens, QST 250 nM (log[nM] 2.39794), read-out: Cell viability (fraction of DMSO control)
[9] = Homo sapiens, QST 500 nM (log[nM] 2.69897), read-out: Cell viability (fraction of DMSO control)
[10] = Homo sapiens, QST 1000 nM (log[nM] 3), read-out: Cell viability (fraction of DMSO control)

Compound: Cn1cc(CNCC2CCN(c3ncc(C(=O)NO)cn3)CC2)c2ccccc21 [QST, quisinostat]
- viability at 0.1 µM ([1]; GB282xTdT, QST 100 nM (log[nM] 2), read-out: Cell viability (fraction of DMSO control)): 43.8%
- viability at 0.25 µM ([1]; GB282xTdT, QST 250 nM (log[nM] 2.39794), read-out: Cell viability (fraction of DMSO control)): 22%
- viability at 0.5 µM ([1]; GB282xTdT, QST 500 nM (log[nM] 2.69897), read-out: Cell viability (fraction of DMSO control)): 13.2%
- viability at 1 µM ([1]; GB282xTdT, QST 1000 nM (log[nM] 3), read-out: Cell viability (fraction of DMSO control)): 8.37%
- IC50 ([1]; GB282, 3-5 days): 66 nM
- IC50 ([2]; Homo sapiens, 3-5 days): 29 nM
- viability at 0.01 µM [2, 4]: 76.3%
- viability at 0.025 µM [2, 5]: 68.5%
- viability at 0.05 µM [2, 6]: 59.2%
- viability at 0.1 µM [2, 7]: 46.1%
- viability at 0.25 µM [2, 8]: 31.5%
- viability at 0.5 µM [2, 9]: 24.4%
- viability at 1 µM [2, 10]: 21.1%
- Cell viability (fraction of DMSO control) ([2]; QST 10 nM (log[nM] 1)): 0.687 and 0.6848
- Cell viability (fraction of DMSO control) ([2]; QST 25 nM (log[nM] 1.39794)): 0.6366 and 0.6132
- Cell viability (fraction of DMSO control) ([2]; QST 50 nM (log[nM] 1.69897)): 0.5332 and 0.5323
- Cell viability (fraction of DMSO control) ([2]; QST 100 nM (log[nM] 2)): 0.436 and 0.4247
- Cell viability (fraction of DMSO control) ([2]; QST 250 nM (log[nM] 2.39794)): 0.3077 and 0.3032
- Cell viability (fraction of DMSO control) ([2]; QST 500 nM (log[nM] 2.69897)): 0.2399 and 0.2412
- Cell viability (fraction of DMSO control) ([2]; QST 1000 nM (log[nM] 3)): 0.2213 and 0.2152
- IC50 ([3]; Homo sapiens, 3-5 days): 65 nM
- viability at 0.01 µM [3, 4]: 78.8%
- viability at 0.025 µM [3, 5]: 77.1%
- viability at 0.05 µM [3, 6]: 66.9%
- viability at 0.1 µM [3, 7]: 51.1%
- viability at 0.25 µM [3, 8]: 37.7%
- viability at 0.5 µM [3, 9]: 30.8%
- viability at 1 µM [3, 10]: 26.5%
- Cell viability (fraction of DMSO control) ([3]; QST 10 nM (log[nM] 1)): 0.7668 and 0.8052
- Cell viability (fraction of DMSO control) ([3]; QST 25 nM (log[nM] 1.39794)): 0.6655 and 0.6833
- Cell viability (fraction of DMSO control) ([3]; QST 50 nM (log[nM] 1.69897)): 0.651 and 0.6783
- Cell viability (fraction of DMSO control) ([3]; QST 100 nM (log[nM] 2)): 0.4804 and 0.526
- Cell viability (fraction of DMSO control) ([3]; QST 250 nM (log[nM] 2.39794)): 0.3237 and 0.3695
- Cell viability (fraction of DMSO control) ([3]; QST 500 nM (log[nM] 2.69897)): 0.2733 and 0.2932
- Cell viability (fraction of DMSO control) ([3]; QST 1000 nM (log[nM] 3)): 0.2807 and 0.2449
- viability at 0.01 µM (U87 GBM cell line; Homo sapiens, U87LN, QST 10 nM (log[nM] 1), read-out: Cell viability (fraction of DMSO control)): 83.5%
- viability at 0.025 µM (U87 GBM cell line; Homo sapiens, U87LN, QST 25 nM (log[nM] 1.39794), read-out: Cell viability (fraction of DMSO control)): 56.7%
- viability at 0.05 µM (U87 GBM cell line; Homo sapiens, U87LN, QST 50 nM (log[nM] 1.69897), read-out: Cell viability (fraction of DMSO control)): 31.6%
- viability at 0.1 µM (U87 GBM cell line; Homo sapiens, U87LN, QST 100 nM (log[nM] 2), read-out: Cell viability (fraction of DMSO control)): 21.5%
- viability at 0.25 µM (U87 GBM cell line; Homo sapiens, U87LN, QST 250 nM (log[nM] 2.39794), read-out: Cell viability (fraction of DMSO control)): 12.8%
- viability at 0.5 µM (U87 GBM cell line; Homo sapiens, U87LN, QST 500 nM (log[nM] 2.69897), read-out: Cell viability (fraction of DMSO control)): 9.84%
- viability at 1 µM (U87 GBM cell line; Homo sapiens, U87LN, QST 1000 nM (log[nM] 3), read-out: Cell viability (fraction of DMSO control)): 8.54%
- IC50 (U87 GBM cell line; Homo sapiens, U87, 3-5 days): 28 nM
- Cell viability (fraction of DMSO control) (U87 GBM cell line; U87LN, QST 10 nM (log[nM] 1)): 0.852 and 0.8354
- Cell viability (fraction of DMSO control) (U87 GBM cell line; U87LN, QST 25 nM (log[nM] 1.39794)): 0.6316 and 0.5286
- Cell viability (fraction of DMSO control) (U87 GBM cell line; U87LN, QST 50 nM (log[nM] 1.69897)): 0.3812 and 0.3792
- Cell viability (fraction of DMSO control) (U87 GBM cell line; U87LN, QST 100 nM (log[nM] 2)): 0.2379 and 0.236
- Cell viability (fraction of DMSO control) (U87 GBM cell line; U87LN, QST 250 nM (log[nM] 2.39794)): 0.1476 and 0.1204
- Cell viability (fraction of DMSO control) (U87 GBM cell line; U87LN, QST 500 nM (log[nM] 2.69897)): 0.1063 and 0.09789
- Cell viability (fraction of DMSO control) (U87 GBM cell line; U87LN, QST 1000 nM (log[nM] 3)): 0.08873 and 0.08769
